Data reported in article PMC10895674, “First-in-Class Dual EZH2-HSP90 Inhibitor Eliciting Striking Antiglioblastoma Activity In Vitro and In Vivo” (Journal of Medicinal Chemistry, 2024).

Key:
EZH2 = EZH2 (Homo sapiens, UniProt Q15910); assay: EZH2 inhibition assay (Reaction Biology Corp.); type: biochemical; details: 10-dose IC50 mode, 3-fold serial dilution starting at 10 μM, single experiment
Protocol: The EZH2 inhibitory ability of the synthesized adduct was assessed by Reaction Biology Corporation Malvern, PA. (http://www.reactionbiology.com).

HSP90a = HSP90a (Homo sapiens, UniProt P07900); assay: In vitro Hsp90 assay (Reaction Biology Corp.); type: biochemical; details: 10-dose IC50 mode, 3-fold serial dilution starting at 10 μM, single experiment; '-' read as no inhibition
Protocol: The HSP90 inhibitory activity of the synthesized adduct was assessed by Reaction Biology Corporation Malvern, PA. (http://www.reactionbiology.com).

[1] = system: TMZ-resistant cells (Pt3R); assay: Cell viability CCK8 assay; type: cell-based, human; details: Homo sapiens, 72 h, CCK8, read-out: IC50, cell growth inhibitory effects
Source text: The CCK8 reagent was purchased from TargetMOI (Wellesley Hills, MA) and used according to the manufacturer’s instruction.

TMZ-resistant Pt3R cells = assay: RNA-seq gene expression profile (and cell morphology) after 48 h; type: cell-based, human
Protocol: To gain insights regarding the ability of dual inhibitor 7 to suppress the viability of TMZ-resistant GBM cells, RNA-seq to analyze gene expression profiles was performed.
Figure 7 Effect of compound 7 on gene expression profile in TMZ-resistant Pt3R cells. […] (B) GSEA functionally grouped genes. (C) Genes involved in apoptosis/necrosis and M phase/Kinetochore/Spindle were clustered in the heatmap.
RNA was isolated using the RNA extracting kit (Zymo Research, Irvine, CA) and subjected to RNA-seq serviced by BIOTOOLS Co., Ltd. (New Taipei City, Taiwan). Cell pellets were collected and subjected to proteomic analysis serviced by BIOTOOLS Co., Ltd. The comparison in gene expression between Pt3 and Pt3R was performed using RNA seq and described previously.[60]

Pt3R cells [2] = assay: Western blotting; type: cell-based, human
Protocol: Furthermore, the impact of compound 7 treatment on centromere proteins (CENPs) was assessed. As such, CENPs are the main constituent proteins of the kinetochore, which are essential for cell division. CENPs expression is elevated in GBM tissues and correlated with unfavorable overall survival in glioma patients.[53]
(§1) Thus, the ability of compound 7 to disturb redox homeostasis in TMZ-resistant cells and attain amplified therapeutic efficacy for GBM was evaluated. In both Pt3 and Pt3R cells, treatment with compound 7 for 48 h increased the ROS level (Figure 10A). […] Moreover, it was also observed that compound 7 increased mitochondria-derived ROS.
The detailed procedure was described in our previous study.[54],[55],[58],[59] Primary antibodies, anti-CENPA, anti-CENPE, anti-CENPF, and anti-CENPI antibodies, were purchased from abcam (Cambridge, U.K.); anti-CDK1 and anticyclin B1 antibodies were purchased from Santa Cruz Biotechnology, Inc. (Dallas, TX); and anti-EZH2 and anti-H3K27^me3 antibodies were purchased from GeneTex International Corporation (HsinChu, Taiwan), anti-Caspase-3 was purchased from GeneTex International Corporation; anti-cleaved Caspase-3 was purchased from Cell Signaling Technology (Danvers, Massachusetts).

Pt3R cells [3] = assay: Cell cycle analysis (PI staining, flow cytometry); type: cell-based, human; details: 24 h treatment (Figure 8E)
Protocol: Figure 8 Compound 7 suppresses gene expression of CENP family. (A) Compound 7-suppressed CENP family. (B) Gene expression of CENP family in Pt3 and TMZ-resistant Pt3R cells. (C) Prognostic value was analyzed using the GlioVis Web site. (D) Western blotting was used to confirm that compound 7 decreased CENPs expression. (E) Cell cycle analysis. After treatment for 24 h, cells were stained with propidium iodide (PI) and subjected to flow cytometry analysis.

mitochondria-derived ROS = assay: MitoSOX assay; type: cell-based; details: Figure 10C
Protocol: as §1
Figure 10 Compound 7 triggers ROS production from mitochondria. (A) After treatment for 48 h, cells were stained with the DHR reagent, and the fluorescent signal was estimated by flow cytometry. Treatment concentration of compound 7 was indicated. (B) Protein lysates were subjected to Western blotting using the indicated antibody. (C) After staining with MitoSOX (red) and Hoechst 33342 (blue), cellular signals were photographed and quantified D. Protein lysates were subjected to Western blotting using the indicated antibody.
Dihydrorhodamine 123 (DHR; Thermo Fisher Scientific, Waltham, MA) was used to label cellular ROS detected by the flow cytometry,[54] and the MitoSOX reagent (Thermo Fisher Scientific) was used to label mitochondrial ROS.[55]

Pt#3-R-induced tumor = assay: In vivo anti-GBM efficacy, Pt3R xenograft; details: 20 mg/kg, intraperitoneally twice per week, NOD.CB17-Prkdc scid mice
Protocol: In vivo anti-GBM efficacy of compound 7 was also evaluated in this study. For the in vivo study, experimental NOD.CB17-Prkdc^scid/NCrCrl mice (8-week-old) were used and Pt3R cells (1 × 10^6) in 50 μL Dulbecco’s modified Eagle’s medium (DMEM) were injected into the back of mice. After 10 days, the tumor was detectable. […] In a nutshell, the outcome of the in vivo study ascertains that the remarkable in vitro anti-GBM activity profile of dual inhibitor 7 was translated to the in vivo potential.
Animal experiments were approved by the institutional animal care and use committee of Taipei Medical University (IACUC: LAC2022-0288). Male NOD.CB17-Prkdc^scid/NCrCrl mice (8-week-old) were purchased from BioLASCO Taiwan Co., Ltd. (Taipei, Taiwan). Pt3R cells (1 × 10^6) in 50 μL of DMEM were injected into the back of mice. Experimental mice were grouped as follows (Figure 11): DMSO (n = 5), C7–10 mg/kg (n = 4), C7–20 mg/kg (n = 6), TAZ-10 mg/kg (n = 6), TAZ-20 mg/kg (n = 8), STA-5+TAZ-5 mg/kg (n = 7), STA-10+TAZ-10 mg/kg (n = 7) and STA-15+TAZ-15 mg/kg (n = 7). After 10 days, the tumor was touchable. Mice were injected intraperitoneally with DMSO (the control group) or compounds twice per week.

[4] = system: blood–brain barrier (BBB); assay: BBB permeability (chamber coated with endothelial cells and astrocytes, MTT of Pt#3-R in lower chamber); type: in vitro ADME; details: upper chamber, 72 h; 0, 1, 5, 10 (mM printed); viability of Pt#3-R in lower chamber by MTT
Protocol: Fig. S1 Compound 7 was added in the upper chamber coated with endothelial cells and astrocytes, and incubated
for 72 h. Subsequently, the viability of Pt#3-R in the lower chamber was analyzed by the MTT assay. As shown […]

Chain of EZH2 (Q15910 whole entry): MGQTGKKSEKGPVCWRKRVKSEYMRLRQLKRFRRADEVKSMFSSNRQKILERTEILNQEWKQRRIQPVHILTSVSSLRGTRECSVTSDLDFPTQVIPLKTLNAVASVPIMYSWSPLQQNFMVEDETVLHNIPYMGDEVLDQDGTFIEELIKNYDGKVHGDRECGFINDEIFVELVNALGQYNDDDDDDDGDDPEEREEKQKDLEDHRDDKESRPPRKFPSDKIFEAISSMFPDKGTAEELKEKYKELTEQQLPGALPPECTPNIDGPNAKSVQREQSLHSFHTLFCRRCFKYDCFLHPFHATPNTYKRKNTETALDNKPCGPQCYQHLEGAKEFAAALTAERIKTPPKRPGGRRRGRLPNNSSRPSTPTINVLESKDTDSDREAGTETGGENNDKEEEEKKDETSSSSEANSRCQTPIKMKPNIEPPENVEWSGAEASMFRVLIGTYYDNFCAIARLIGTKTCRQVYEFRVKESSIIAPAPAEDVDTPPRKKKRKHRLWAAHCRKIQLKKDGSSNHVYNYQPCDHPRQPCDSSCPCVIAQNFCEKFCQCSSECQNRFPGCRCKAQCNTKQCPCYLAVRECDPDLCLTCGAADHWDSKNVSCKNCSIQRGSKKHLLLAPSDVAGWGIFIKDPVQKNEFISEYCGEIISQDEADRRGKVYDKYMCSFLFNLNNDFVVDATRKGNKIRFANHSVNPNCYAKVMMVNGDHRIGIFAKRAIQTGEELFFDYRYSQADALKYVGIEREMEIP
Chain of EZH2 (O75530 whole entry partner): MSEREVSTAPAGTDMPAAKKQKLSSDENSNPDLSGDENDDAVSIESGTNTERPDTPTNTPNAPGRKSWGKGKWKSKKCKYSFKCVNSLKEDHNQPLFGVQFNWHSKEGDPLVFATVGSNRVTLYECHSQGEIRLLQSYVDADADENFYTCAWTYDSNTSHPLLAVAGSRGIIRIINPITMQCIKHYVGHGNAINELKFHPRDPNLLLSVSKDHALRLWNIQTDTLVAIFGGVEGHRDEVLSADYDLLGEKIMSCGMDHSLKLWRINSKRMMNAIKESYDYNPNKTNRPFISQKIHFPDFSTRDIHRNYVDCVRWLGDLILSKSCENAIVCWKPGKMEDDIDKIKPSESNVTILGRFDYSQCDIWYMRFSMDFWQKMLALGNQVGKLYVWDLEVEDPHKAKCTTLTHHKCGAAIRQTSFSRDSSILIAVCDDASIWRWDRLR
Chain of EZH2 (Q15022 whole entry partner): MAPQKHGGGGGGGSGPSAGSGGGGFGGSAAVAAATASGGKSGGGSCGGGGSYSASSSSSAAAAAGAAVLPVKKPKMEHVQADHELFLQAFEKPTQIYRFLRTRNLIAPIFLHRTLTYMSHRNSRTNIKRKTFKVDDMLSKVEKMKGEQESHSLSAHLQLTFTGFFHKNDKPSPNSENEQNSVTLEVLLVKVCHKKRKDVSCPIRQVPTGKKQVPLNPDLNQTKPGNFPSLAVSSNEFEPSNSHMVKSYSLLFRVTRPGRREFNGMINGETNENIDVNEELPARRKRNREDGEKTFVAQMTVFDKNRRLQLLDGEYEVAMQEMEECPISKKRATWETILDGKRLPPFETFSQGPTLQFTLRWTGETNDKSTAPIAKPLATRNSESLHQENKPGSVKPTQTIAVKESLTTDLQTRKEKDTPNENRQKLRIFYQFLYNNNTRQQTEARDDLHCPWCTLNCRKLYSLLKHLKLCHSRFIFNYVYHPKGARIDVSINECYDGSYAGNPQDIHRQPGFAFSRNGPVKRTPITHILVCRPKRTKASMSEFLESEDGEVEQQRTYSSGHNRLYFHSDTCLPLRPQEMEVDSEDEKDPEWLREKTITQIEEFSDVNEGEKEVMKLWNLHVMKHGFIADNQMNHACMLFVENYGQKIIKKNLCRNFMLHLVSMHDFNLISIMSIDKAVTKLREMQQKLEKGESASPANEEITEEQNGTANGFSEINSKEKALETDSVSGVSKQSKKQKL
Chain of EZH2 (Q09028 whole entry partner): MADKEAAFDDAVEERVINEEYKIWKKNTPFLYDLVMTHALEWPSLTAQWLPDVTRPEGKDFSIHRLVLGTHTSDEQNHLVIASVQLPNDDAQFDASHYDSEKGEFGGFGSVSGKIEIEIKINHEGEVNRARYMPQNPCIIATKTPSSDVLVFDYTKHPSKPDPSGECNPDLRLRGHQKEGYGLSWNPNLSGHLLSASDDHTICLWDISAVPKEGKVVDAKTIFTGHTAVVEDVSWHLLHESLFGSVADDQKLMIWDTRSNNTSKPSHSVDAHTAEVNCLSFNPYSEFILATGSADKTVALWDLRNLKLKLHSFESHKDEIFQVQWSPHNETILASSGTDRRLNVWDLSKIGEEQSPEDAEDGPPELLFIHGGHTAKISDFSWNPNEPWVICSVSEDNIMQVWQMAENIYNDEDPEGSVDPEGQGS
Chain of EZH2 (Q6ZN18 whole entry partner): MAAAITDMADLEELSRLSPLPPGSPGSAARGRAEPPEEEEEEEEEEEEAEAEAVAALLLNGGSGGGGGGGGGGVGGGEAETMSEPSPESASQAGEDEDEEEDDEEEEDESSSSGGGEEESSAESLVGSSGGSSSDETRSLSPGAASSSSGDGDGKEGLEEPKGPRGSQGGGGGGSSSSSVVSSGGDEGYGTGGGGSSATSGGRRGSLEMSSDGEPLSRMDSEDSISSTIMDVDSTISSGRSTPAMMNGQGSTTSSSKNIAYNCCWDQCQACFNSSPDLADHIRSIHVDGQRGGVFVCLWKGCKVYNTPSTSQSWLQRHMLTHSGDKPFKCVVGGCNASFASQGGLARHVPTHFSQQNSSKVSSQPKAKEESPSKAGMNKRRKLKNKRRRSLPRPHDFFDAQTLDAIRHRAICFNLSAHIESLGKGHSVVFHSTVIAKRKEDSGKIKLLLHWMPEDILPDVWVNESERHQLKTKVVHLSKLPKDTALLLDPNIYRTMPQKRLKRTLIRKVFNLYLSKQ

CCN(c1cc(-c2cccc(N(C)C(=O)c3cc(C(C)C)c(O)cc3O)c2)cc(C(=O)NCc2c(C)cc(C)[nH]c2=O)c1C)C1CCOCC1 [Compound 7, 3′-(2,4-Dihydroxy-5-isopropyl-N-methylbenzamido)-N-((4,6-dimethyl-2-oxo-1,2-dihydropyridin-3-yl)methyl)-5-(ethyl(tetrahydro-2H-pyran-4-yl)amino)-4-methyl-[1,1′-biphenyl]-3-carboxamide]
IC50 (EZH2): 0.00629 µM
IC50 (HSP90a): 0.0601 µM
IC50 [1]: 1.01 ± 0.69 µM
centromere proteins (CENPs) CENPF, CENPE, CENPA, CENPI gene expression (TMZ-resistant Pt3R cells; Pt3R (Figure 8C)): decreased
RBBP8 and BRCA1 gene expression (TMZ-resistant Pt3R cells; Pt3R (Figure 9A)): suppressed
genes regulating homologous recombination (TOP2A, RAD54B, RAD21, EME1, BRIP1) (TMZ-resistant Pt3R cells; Pt3R (Figure 9H)): suppressed
number of gene expressions decreased (RNA-seq) (TMZ-resistant Pt3R cells; Pt3R, 2 μM, 48 h): 498
number of gene expressions increased (RNA-seq) (TMZ-resistant Pt3R cells; Pt3R, 2 μM, 48 h): 297
cell proliferation (TMZ-resistant Pt3R cells; Pt3R, 2 μM, 48 h (Figure 7A)): significantly inhibited cell proliferation
M phase/kinetochore/spindle-related gene expression (TMZ-resistant Pt3R cells; Pt3R, 48 h): decreased
apoptosis/necrosis-related gene expression (TMZ-resistant Pt3R cells; Pt3R, 48 h): increased
EZH2 expression and EZH2-modulated H3K27 trimethylation (Pt3R cells [2]; Figure 10B): inhibited
proteins involved in cleaning ROS (catalase, SOD1, glutathione reductase, GPX1) (Pt3R cells [2]; Figure 10B): decreased
expression of cleaved caspase-3 (Pt3R cells [2]; Figure 10D): upregulate
CENPs protein expression (Pt3R cells [2]; Pt3R (Figure 8D)): decreased
expression of CDK1 and cyclin B1 (Pt3R cells [2]; Pt3R (Figure 8D)): downregulated
cell cycle (Pt3R cells [3]): induced cell cycle arrest at the M phase
MitoSOX red signal representing ROS produced from mitochondria (mitochondria-derived ROS): remarkably enhanced
growth of Pt#3-R-induced tumor (Pt#3-R-induced tumor): significantly decreased the growth
BBB penetration [4]: able to penetrate blood–brain barrier (BBB)
